# Reference: patent publication US9096687B2, “Inhibition of inflammation using antagonists of MUC1” (DANA-FARBER CANCER INSTITUTE, INC., priority 2009, dated 2015)
# Square brackets hold non-standard residues; d marks the D form. Ends that are not written are not given here.
# Legend:
# [1] = tested on: H-1975 non-small cell lung carcinoma cell line; details: H-1975 cells, 5 μM, 3 days
# Method: H-1975 non-small cell lung carcinoma cell line was grown in DMEM with 10% heat-inactivated fetal bovine serum with 100 units/mL penicillin, 100 μg/ml streptomycin and 2 mmol/L L-glutamine. Cells were re-seeded one day before treatments. Cells were treated with 5 μM GO-200-2B for 3 days and cell viability was determined by trypan blue exclusion.
# Moreover, another non-small cell lung carcinoma cell line, H-1975, was treated with 5 μM GO-200-2B for 3 days and monitored for cell growth as well as cell death.
# [2] = tested on: multiple carcinoma cell lines; assay: Growth and killing of carcinoma cell lines by L-amino acid MUC1 C-terminal peptides; assay type: cell-based
# From the text: GO-203 analogs. The inventors' recent studies have shown that a MUC1 C-terminal peptide (CQCRRKNYGQLDIFP; SEQ ID NO:3) is active in inhibiting growth of multiple carcinoma cell lines. […] However, these MUC1-C-terminal peptides consists of L-amino acids. […] Consequently, they have generated an all-dextro form of the above described shorter MUC1 C-terminal peptide, in which the L-amino acids were changed to D-amino acids (GO-203). Moreover, to determine the minimum amino acid residues from the MUC1-C-terminal region that are required to retain the cell killing activity, they have also generated many different versions of GO-203 as described in FIG. 15.
# [3] = tested on: ZR-75-1 breast carcinoma cells; assay: Proliferation of ZR-75-1 breast carcinoma cells (trypan blue exclusion); assay type: cell-based, Human; details: 5 μM every day for 4 days
# Method: FIG. 17: Effect of different MUC1-CD CQC-region peptides on the growth of hormone-dependent breast carcinoma cells. To determine whether exposure to different MUC1-CD CQC-region containing peptides affect growth, ZR-75-1 breast carcinoma cells were treated with 5 μM of different peptides for 4 days and monitored for cell proliferation.
# FIG. 21: Effect of Shorter GO-203 peptides on proliferation of ZR-75-1 Breast Cancer Cells. Human ZR-75-1 breast cancer cells were grown in RPMI1640 supplemented with 10% heat-inactivated fetal bovine serum, 100 units/ml penicillin, 100 μg/ml streptomycin. Cells were treated with different peptides at 5 μM every day for four days and cell viability was determined by trypan blue exclusion.
# Multiple tumor cell lines (ZR-75-1 Hormone-dependent Breast Carcinoma; MDA-MB-231 Triple-Negative Breast Carcinoma; A549 Non-small Cell Lung Carcinoma; H-1975 Non-small Cell Lung Carcinoma) were grown in RPMI-1640 supplemented with 10% heat-inactivated fetal bovine serum, 100 units/mL penicillin and 100 μg/mL streptomycin and 2 mmol/L L-glutamine. Cells were treated separately with 5 μM of different analogs of GO-203 (FIG. 15) for 3 to 7 days and viability was determined by trypan blue exclusion. The proliferation of different cell lines was compared with cells treated with vehicle only.
# [4] = target: T1, interaction between MUC1-CD and NF-κB p65 (Homo sapiens, UniProt P15941); assay: In vitro binding of GST-MUC1-CD to purified NF-κB p65 (glutathione bead adsorbates, anti-p65 immunoblot); details: 1 h at room temperature
# T1 construct: a GST fusion protein containing the 72 amino acid MUC1-CD; made in house
# T1 sequence (P15941 1184-1255): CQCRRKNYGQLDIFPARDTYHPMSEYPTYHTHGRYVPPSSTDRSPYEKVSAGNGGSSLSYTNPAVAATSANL
# Method: In Vitro Binding Assays. GST, GST-MUC1-CD, GST-MUC1-CD(1-45) and GST-MUC1-CD(46-72) were prepared as described (Ahmad et al., 2007) and incubated with p65 and certain p65 deletion mutants. Purified GST-MUC1-CD was cleaved with thrombin to remove the GST moiety. GST-IκBα (Millipore, Billerica, Mass.) was incubated with p65(186-306) for 2 h at 25° C. in the absence and presence of purified MUC1-CD. Adsorbates to glutathione-conjugated beads were analyzed by immunoblotting.
# [5] = target: T2, interaction between MUC1-CD and STAT3 (Homo sapiens, UniProt P15941); assay: In vitro binding of GST-STAT3 to purified MUC1-CD; details: 1 h at room temperature
# T2 construct: a GST fusion protein containing the 72 amino acid MUC1-CD; GST (cleaved yes); made in house
# T2 sequence (P15941 1184-1255): T1 sequence (P15941 1184-1255)
# [6] = target: T3, IL-6-induced interaction between MUC1-C and STAT3 (Homo sapiens, UniProt P15941); assay: Anti-STAT3 co-immunoprecipitation from IL-6-stimulated MCF-10A cells; assay type: cell-based; parameters: dose or concentration left out as unconfirmed; details: peptide added each 24 h for 72 h
# T3 construct: C-terminal subunit (MUC1 C-ter, MUC1-C), which includes a 58 amino acid extracellular region; endogenous in cells; host or cells: MCF-10A
# T3 sequence (P15941 1098-1255 limits assumed): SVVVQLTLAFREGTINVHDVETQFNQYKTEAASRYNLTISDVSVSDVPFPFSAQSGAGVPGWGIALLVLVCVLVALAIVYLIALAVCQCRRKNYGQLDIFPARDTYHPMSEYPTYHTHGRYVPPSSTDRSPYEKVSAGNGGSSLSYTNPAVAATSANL
# MUC1-CD oligomerization = target: T4, MUC1-CD oligomerization (Homo sapiens, UniProt P15941); assay: Oligomerization of MUC1-CD in vitro; assay type: biochemical
# T4 construct: contains a 72-amino acid cytoplasmic domain (MUC1-CD)
# T4 sequence (P15941 1184-1255): T1 sequence (P15941 1184-1255)
# From the text: (§1) Previous Studies. Overexpression of MUC1 is sufficient for the induction of anchorage-independent growth and tumorigenicity (Li et al., 2003a; Huang et al., 2003; Huang et al., 2005). […] MUC1 forms oligomers and the CQC motif is necessary for this oligomerization (Leng et al., 2007). Moreover, oligomer formation is necessary for targeting of the MUC1-C subunit to the nucleus (Leng et al., 2007). The inventors synthesized a MUC1-derived peptide that contains the CQC motif and a poly-Arg cell delivery domain for entry into cells.
# [7] = tested on: carcinoma cells overexpressing MUC1; assay: Growth arrest and necrosis of cells exposed to peptide; assay type: cell-based; details: for growth arrest and induction of necrosis: exposure of cells
# From the text: as §1
# [8] = target: T5, TNFα-induced interaction between MUC1-C and NF-κB p65 (Homo sapiens, UniProt P15941); assay: Anti-p65 co-immunoprecipitation from TNFα-stimulated MCF-10A cells; assay type: cell-based; details: 5 μM peptide added each 24 h for 72 h
# T5 construct: C-terminal subunit (MUC1 C-ter, MUC1-C), which includes a 58 amino acid extracellular region; endogenous in cells; host or cells: MCF-10A
# T5 sequence (P15941 1098-1255 limits assumed): T3 sequence (P15941 1098-1255 limits assumed)
# Method: Cell Culture. Human ZR-75-1 breast cancer and U-937 leukemia cells were grown in RPMI 1640 medium containing 10% heat-inactivated fetal bovine serum (FBS), 100 units/ml penicillin, 100 μg/ml streptomycin and 2 mM L-glutamine. Human HeLa cervical and MCF-7 breast carcinoma cells were grown in Dulbecco's modified Eagle's medium with 10% FBS, antibiotics and L-glutamine. Human MCF-10A breast epithelial cells were grown in mammary epithelial cell growth medium (MEGM; Lonza, Walkersville, Md.) and treated with 20 ng/ml TNFα (BD Biosciences, San Jose, Calif.). Transfection of the MCF-10A cells with siRNA pools (Dharmacon, Lafayette, Colo.) was performed in the presence of Lipofectamine 2000 (Invitrogen, Carlsbad, Calif.). Cells were treated with 5 μM MUC1/CQC and MUC1/AQA peptides synthesized by the MIT Biopolymer Laboratory (Cambridge, Mass.).
# Immunoprecipitation and immunoblotting. Lysates from sub-confluent cells were prepared as described (Ren et al., 2004). Soluble proteins were precipitated with anti-NF-κB p65 (Santa Cruz Biotechnology, Santa Cruz, Calif.). […] Immune complexes were detected with horseradish peroxidase-conjugated secondary antibodies (GE Healthcare Biosciences, Piscataway, N.J.) and enhanced chemiluminescence (GE Healthcare).
# [9] = tested on: TNFα-induced MUC1 and Bcl-xL expression; assay: Immunoblot of lysates from TNFα-stimulated MCF-10A cells; assay type: cell-based, Human; details: 5 μM peptide added each 24 h for 72 h
# Method: Immunoprecipitation and immunoblotting. Lysates from sub-confluent cells were prepared as described (Ren et al., 2004). Soluble proteins were precipitated with anti-NF-κB p65 (Santa Cruz Biotechnology, Santa Cruz, Calif.). The immunoprecipitates and cell lysates were subjected to immunoblotting with anti-p65, anti-p65 (180-306) (Millipore, Billerica, Mass.) anti-MUC1-C (Ab5; Lab Vision, Fremont, Calif.), anti-IκBα (Santa Cruz Biotechnology), anti-Bcl-xL (Santa Cruz Biotechnology) and anti-α-actin (Sigma, St. Louis, Mo.). Immune complexes were detected with horseradish peroxidase-conjugated secondary antibodies (GE Healthcare Biosciences, Piscataway, N.J.) and enhanced chemiluminescence (GE Healthcare).
# [10] = tested on: STAT3 and MUC1-C on the MUC1 promoter; assay: ChIP of MUC1 promoter STAT binding site in IL-6-stimulated MCF-10A cells; assay type: cell-based, Human; details: 5 mM peptide added each 24 h for 72 h
# pMUC1-Luc reporter = pMUC1-Luc reporter assay in IL-6-stimulated MCF-10A cells; assay type: cell-based, Human
# Method: Luciferase Assays. Cells were transfected with NFκB-Luc (Ahmad et al., 2007) or pMUC1-Luc (Yin et al., 2003) and SV-40-Renilla-Luc (Promega, Madison, Wis.) in the presence of Lipofectamine. After 48 h, the cells were lysed in passive lysis buffer. Lysates were analyzed for firefly and Renilla luciferase activities using the dual luciferase assay kit (Promega).
# [11] = tested on: MUC1-C levels in the nucleus; assay: MUC1-C levels in the nucleus after peptide uptake; assay type: cell-based; details: after uptake of the peptide
# From the text: as §1
# tumor growth = assay: Administration to tumor bearing mice
# From the text: as §1
# [12] = tested on: MUC1-C and STAT3 occupancy of the MUC1 promoter; assay: Constitutive occupancy of the MUC1 promoter in breast cancer cells; assay type: cell-based
# Method: (§2) MUC1-C Promotes STAT3-Mediated Transcription. […] In concert with these observations, silencing MUC1 in breast cancer cells was associated with decreases in (i) constitutive STAT3 occupancy on the STAT binding site, and (ii) constitutive activation of the MUC1 promoter. To provide further support for an auto-inductive loop, studies were performed with GO-201, an inhibitor of MUC1-C oligomerization (Raina, 2009). […] Moreover, GO-201 blocked IL-6 induced activation of the MUC1 promoter. […] These findings thus provide support for the potential importance of the MUC1-C-STAT3 interaction in targeting STAT3 to the MUC1 promoter and promoting activation of the MUC1 gene in an auto-inductive loop (FIG. 7D).
# MUC1 promoter = assay: Constitutive activation of the MUC1 promoter in breast cancer cells; assay type: cell-based
# Method: as §2
# [13] = tested on: MUC1-C and NF-κB p65 occupancy of the NF-κB binding motif in the MUC1 promoter; assay: ChIP of MUC1 promoter NF-κB binding motif in TNFα-stimulated MCF-10A cells; details: 5 μM peptide added each 24 h for 72 h
# Method: MCF-10A cells were left untreated or stimulated with TNFα in the presence of 5 μM MUC1/CQC or MUC1/AQA peptide added each 24 h for 72 h. […] (FIGS. 6B and 6C) MCF-10A cells were left untreated or stimulated with TNFα in the presence of 5 μM MUC1/CQC or MUC1/AQA peptide added each 24 h for 72 h. Soluble chromatin was precipitated with anti-MUC1-C (left) or anti-p65 (right) and then analyzed for MUC1 NF-κB binding motif promoter sequences (FIG. 6B).
# ChIP Assays. Soluble chromatin was prepared as described (Wei et al., 2006) and precipitated with anti-p65, anti-MUC1-C or a control non-immune IgG. […] For PCR, 2 μl from a 50 μl DNA extraction was used with 25-35 cycles of amplification.
# severe sepsis = details: decreased from about 31%; cited from earlier work
# [14] = tumor bearing mice, 10 and 30 mg/kg/d for 21 d
molecule,measurement,setting,value
CC(=O)N[C@@H](C)C(=O)N[C@@H](CCCCN)C(=O)N[C@@H](CCCCN)C(=O)N[C@@H](Cc1ccc(O)cc1)C(=O)N[C@@H](CC(C)C)C(=O)N[C@@]1(C)CCCC=CCCCC2(CCCC=CCCC[C@@](C)(C(=O)N[C@@H](CCCNC(=N)N)C(=O)N[C@@H](CCCCN)C(=O)N[C@@H](CC(N)=O)C(=O)N[C@@H](Cc3ccc(O)cc3)C(N)=O)NC(=O)[C@H](CS)NC(=O)[C@H](CCC(N)=O)NC(=O)[C@H](CS)NC2=O)NC(=O)[C@H](C)NC(=O)[C@H](CC(C)C)NC(=O)[C@H](C)NC1=O (stereo partly shown) [GO-200-2B],induction of cell death,[1],significant induction of cell death
CQCRRKN [shorter MUC1-C-terminal peptide consisting of L-amino acids],killing tumor cells,[2],active
CQCRRKNYGQLDIFP,inhibiting growth of multiple carcinoma cell lines,[2],active
"GO-203: all-dextro form of the shorter MUC1 C-terminal peptide CQCRRKN (SEQ ID NO:53), L-amino acids changed to D-amino acids ([dC][dQ][dC][dR][dR][dK][dN]; cysteine pairing not given here)",growth of ZR-75-1 breast carcinoma cells,[3],significant inhibition of growth
"GO-207: shorter GO-203 peptide, SEQ ID NO:4 (CQCRRK)",growth of ZR-75-1 breast carcinoma cells,[3],significant inhibition of growth
"GO-208: shorter GO-203 peptide, SEQ ID NO:50 (CQCRR)",growth of ZR-75-1 breast carcinoma cells,[3],significant inhibition of growth
"GO-209: shorter GO-203 peptide, SEQ ID NO:54 (CQCR)",growth of ZR-75-1 breast carcinoma cells,[3],significant inhibition of growth
"MUC1/AQA: control peptide in which the CQC motif was mutated to AQA (SEQ ID NO:62), with poly D-arginine transduction domain (AQARRKNYGQLDIFP; also: poly D-arginine transduction domain, not placed) [reference compound]",interaction between MUC1-CD and NF-κB p65 in vitro,[4],little if any effect
same,interaction between MUC1-CD and STAT3 in vitro,[5],not
same,IL-6-induced interaction between MUC1-C and STAT3,[6],not
same,oligomerization of MUC1-CD in vitro,MUC1-CD oligomerization,did not
same,growth arrest and induction of necrosis,[7],not
"MUC1/CQC: peptide corresponding to MUC1-CD(1-15) (SEQ ID NO:3, CQCRRKNYGQLDIFP) with poly D-arginine transduction domain; inhibitor of MUC1-C oligomerization (cysteine pairing not given here; also: poly D-arginine transduction domain, not placed)",interaction between MUC1-CD and NF-κB p65 in vitro,[4],blocked the interaction
same,TNFα-induced interaction between MUC1-C and NF-κB p65,[8],blocked
same,TNFα-induced Bcl-xL expression,[9],attenuated
same,TNFα-induced MUC1 expression,[9],decreased
same,interaction between MUC1-CD and STAT3 in vitro,[5],blocked
same,IL-6-induced interaction between MUC1-C and STAT3,[6],blocked
same,IL-6-induced targeting of STAT3 and MUC1-C to the MUC1 promoter,[10],inhibited
same,IL-6-induced activation of the pMUC1-Luc reporter,pMUC1-Luc reporter,attenuated
same,oligomerization of MUC1-CD in vitro,MUC1-CD oligomerization,inhibits
same,MUC1-C levels in the nucleus,[11],down-regulation
same,selectivity of dominant-negative activity,[7],selective for carcinoma cells overexpressing MUC1
same,growth arrest and induction of necrosis,[7],growth arrest and the induction of necrosis
same,tumor growth following treatment,tumor growth; 50 mg/kg/d for 7 d,tumor growth remains arrested for extended periods
same,tolerability,tumor growth; [14],well-tolerated without apparent acute toxicities
same,tumor growth,tumor growth; [14],effective in abrogating tumor growth
same,constitutive occupancy of the MUC1 promoter by MUC1-C and STAT3,[12],inhibits
same,constitutive activation of the MUC1 promoter,MUC1 promoter,inhibits
same,TNFα-induced MUC1-C and NF-κB p65 occupancy of the NF-κB binding motif,[13],decreased
drotrecogin alfa,mortality,severe sepsis,about 25%
